Data as given in ChEMBL document CHEMBL1201862, “PubChem BioAssay data set” (2004).
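Protocol summary: plate cells (96-well), add compound at 5 concentrations, incubate 48 h, interpolate endpoints linearly. GI50 is the concentration that inhibits growth by half.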 Active and inactive are the calls of the source. Rule as the data show it: active = GI50 up to about 1.1 µM and inactive = higher. Peptide text beside a SMILES is read from it. * marks the point of attachment. OSu = O=C1CCC(=O)N1O*

Tests used:
Assay in all cases: NCI tumour cell line growth inhibition, 48 h
CAKI-1 = system: CAKI-1
CCRF-CEM = system: CCRF-CEM
HCC 2998 = system: HCC 2998
HL-60 = system: HL-60
HOP-92 = system: HOP-92
K562 = system: K562
MCF7 = system: MCF7
MDA-MB-231 = system: MDA-MB-231
MDA-MB-435 = system: MDA-MB-435
NCI-H460 = system: NCI-H460
NCI-H522 = system: NCI-H522
RPMI-8226 = system: RPMI-8226
RXF 393 = system: RXF 393
SF-295 = system: SF-295
SF-539 = system: SF-539
SK-MEL-28 = system: SK-MEL-28
SK-MEL-2 = system: SK-MEL-2
UACC-62 = system: UACC-62
SR = system: SR

Measured: GI50

O=C(O)C(SC1=NC(=O)C2(NN1)c1ccccc1-c1ccccc12)SC1=NC(=O)C2(NN1)c1ccccc1-c1ccccc12
inactive: CAKI-1 > 10 µM | CCRF-CEM > 10 µM | HCC 2998 > 10 µM | HL-60 5.14 µM | HOP-92 > 10 µM | K562 9.51 µM | MCF7 8.67 µM | MDA-MB-231 > 10 µM | MDA-MB-435 > 10 µM | NCI-H460 > 10 µM | NCI-H522 > 10 µM | RPMI-8226 7.33 µM | RXF 393 > 10 µM | SF-295 > 10 µM | SF-539 > 10 µM | SK-MEL-28 > 10 µM | SK-MEL-2 > 10 µM | UACC-62 > 10 µM

CCCCCCCCCCCCO[PH](=O)OCCCCCCCCCCCC
inactive: CCRF-CEM > 100 µM | HCC 2998 > 100 µM | HL-60 > 100 µM | HOP-92 > 100 µM | K562 > 100 µM | MCF7 > 100 µM | MDA-MB-231 > 100 µM | MDA-MB-435 > 100 µM | NCI-H460 > 100 µM | NCI-H522 > 100 µM | RPMI-8226 > 100 µM | RXF 393 > 100 µM | SF-295 > 100 µM | SF-539 > 100 µM | SK-MEL-28 > 100 µM | SK-MEL-2 > 100 µM | UACC-62 > 100 µM

NCCCCC(NC(=O)C(N)Cc1ccc(O)cc1)C(=O)NC(CCCCN)C(=O)NC(CCCCN)C(=O)ON1C(=O)CCC1=O (stereo unspecified) (H-YKKK-OSu; configuration not given here)
inactive: HCC 2998 > 100 µM | HL-60 > 100 µM | HOP-92 > 100 µM | K562 > 100 µM | MCF7 > 100 µM | MDA-MB-231 > 100 µM | NCI-H460 > 100 µM | RPMI-8226 > 100 µM | RXF 393 > 100 µM | SK-MEL-28 > 100 µM | SK-MEL-2 > 100 µM | SR > 100 µM | UACC-62 > 100 µM

O=C(OCc1ccccc1)c1nc2ccccc2n1S(=O)(=O)c1ccccc1
inactive: CAKI-1 > 100 µM | CCRF-CEM > 100 µM | HCC 2998 > 100 µM | HL-60 > 100 µM | HOP-92 > 100 µM | K562 > 100 µM | MDA-MB-231 > 100 µM | MDA-MB-435 > 100 µM | NCI-H460 > 100 µM | RPMI-8226 > 100 µM | RXF 393 > 100 µM | SF-295 > 100 µM | SF-539 > 100 µM | SK-MEL-28 > 100 µM | SK-MEL-2 > 100 µM | UACC-62 > 100 µM

CN(C)C(=O)C(NCCO)c1ccccc1 (stereo unspecified)
inactive: CAKI-1 > 100 µM | HCC 2998 > 100 µM | HOP-92 > 100 µM | MCF7 > 100 µM | MDA-MB-231 > 100 µM | MDA-MB-435 79.4 µM | NCI-H460 > 100 µM | NCI-H522 > 100 µM | RPMI-8226 27.9 µM | RXF 393 > 100 µM | SF-295 > 100 µM | SF-539 > 100 µM | SK-MEL-28 > 100 µM | SK-MEL-2 > 100 µM | UACC-62 61.2 µM

COC(=O)CC(SCCO)SCCO
inactive: CAKI-1 > 100 µM | CCRF-CEM > 100 µM | HCC 2998 > 100 µM | HL-60 > 100 µM | HOP-92 > 100 µM | K562 > 100 µM | MDA-MB-231 > 100 µM | MDA-MB-435 > 100 µM | NCI-H460 70.3 µM | NCI-H522 > 100 µM | RPMI-8226 > 100 µM | RXF 393 > 100 µM | SF-295 > 100 µM | SF-539 > 100 µM | SK-MEL-28 > 100 µM | SR > 100 µM | UACC-62 > 100 µM

CN1C2=C(CC3=C1CC(C)(C)CC3=O)C(=O)CC(C)(C)C2
inactive: CAKI-1 > 100 µM | CCRF-CEM > 100 µM | HCC 2998 > 100 µM | HL-60 > 100 µM | HOP-92 > 100 µM | K562 > 100 µM | MCF7 > 100 µM | NCI-H460 > 100 µM | RPMI-8226 > 100 µM | SF-539 > 100 µM | SK-MEL-28 > 100 µM | SR > 100 µM | UACC-62 > 100 µM

Cc1cc(C)c(S(=O)(=O)ONC(=O)OC(C)(C)C)c(C)c1
inactive: CAKI-1 > 100 µM | CCRF-CEM > 100 µM | HCC 2998 > 100 µM | HL-60 > 100 µM | HOP-92 > 100 µM | K562 > 100 µM | NCI-H460 > 100 µM | NCI-H522 > 100 µM | RPMI-8226 > 100 µM | RXF 393 > 100 µM | SF-295 > 100 µM | SF-539 > 100 µM | SK-MEL-28 > 100 µM | SK-MEL-2 > 100 µM | UACC-62 > 100 µM

N#Cc1c(N)nc(-c2ccc(Cl)cc2)c2c1-c1ccccc1S(=O)(=O)CC2
inactive: CAKI-1 > 100 µM | HCC 2998 > 100 µM | HOP-92 > 100 µM | K562 > 100 µM | MDA-MB-231 > 100 µM | MDA-MB-435 > 100 µM | NCI-H460 45.1 µM | NCI-H522 31 µM | RPMI-8226 > 100 µM | SK-MEL-28 > 100 µM | SK-MEL-2 > 100 µM | SR 56.4 µM | UACC-62 > 100 µM

CC1=NNC(=O)C1C1C(=O)NN=C(c2c[nH]c3ccccc23)C1Br (stereo unspecified)
inactive: CAKI-1 62.4 µM | CCRF-CEM 25.7 µM | HL-60 37.3 µM | HOP-92 > 100 µM | K562 31.7 µM | MDA-MB-231 > 100 µM | MDA-MB-435 48.6 µM | NCI-H460 38.7 µM | NCI-H522 16.4 µM | RPMI-8226 40.7 µM | RXF 393 > 100 µM | SF-295 17.7 µM | SF-539 50.2 µM | SK-MEL-28 69 µM | SK-MEL-2 21.1 µM | UACC-62 83.4 µM

Fc1ccc(-c2sc(-c3cccs3)cc2Cc2cccs2)cc1
inactive: CAKI-1 > 100 µM | CCRF-CEM 91 µM | HCC 2998 > 100 µM | HL-60 > 100 µM | HOP-92 > 100 µM | K562 > 100 µM | MCF7 > 100 µM | MDA-MB-231 > 100 µM | MDA-MB-435 > 100 µM | NCI-H460 > 100 µM | NCI-H522 > 100 µM | RXF 393 50.6 µM | SF-295 > 100 µM | SF-539 > 100 µM | SK-MEL-28 > 100 µM | SK-MEL-2 > 100 µM | UACC-62 > 100 µM

COC(=O)/C(=N\N)C(C(=O)C(=O)Nc1cc(Cl)ccc1Cl)c1nc2ccc([N+](=O)[O-])cc2nc1O (stereo unspecified)
inactive: CAKI-1 > 100 µM | CCRF-CEM > 100 µM | HCC 2998 > 100 µM | HL-60 > 100 µM | HOP-92 > 100 µM | K562 > 100 µM | MCF7 > 100 µM | MDA-MB-231 > 100 µM | MDA-MB-435 > 100 µM | NCI-H460 > 100 µM | NCI-H522 > 100 µM | RPMI-8226 > 100 µM | RXF 393 > 100 µM | SF-295 > 100 µM | SF-539 > 100 µM | SK-MEL-28 > 100 µM | SK-MEL-2 > 100 µM | UACC-62 > 100 µM

COC(=O)C1(C(=O)OC)CC(=O)c2cc3c(cc2-c2c(cc(OC)c(OC)c2OC)C1)OCO3
inactive: CAKI-1 > 211 µM | CCRF-CEM 173 µM | HCC 2998 > 211 µM | HL-60 67.1 µM | HOP-92 26.8 µM | K562 139 µM | NCI-H460 > 211 µM | NCI-H522 96.4 µM | RXF 393 54.7 µM | SF-295 80.4 µM | SF-539 > 211 µM | SK-MEL-28 > 211 µM | SK-MEL-2 > 211 µM | SR 70.3 µM | UACC-62 109 µM

O=C1C=C(NCCOCCO)C(=O)c2c(O)ccc(O)c21
inactive: CAKI-1 43.3 µM | CCRF-CEM 27.4 µM | HCC 2998 17.5 µM | HL-60 15.3 µM | HOP-92 24.3 µM | K562 27.9 µM | MCF7 16 µM | MDA-MB-231 33.2 µM | MDA-MB-435 18.2 µM | NCI-H460 29.2 µM | NCI-H522 24 µM | RPMI-8226 22.7 µM | RXF 393 33.3 µM | SF-295 47.4 µM | SF-539 24 µM | SK-MEL-28 69 µM | SK-MEL-2 20.1 µM | UACC-62 14.5 µM

CC(OC(C)(C)C)[C@H](NC(=O)OCc1ccccc1)C(=O)NC(OCc1ccccc1)[C@H]1COC(C)(C)O1 (stereo partly specified)
inactive: CAKI-1 > 10 µM | CCRF-CEM > 10 µM | HCC 2998 > 10 µM | HL-60 > 10 µM | HOP-92 > 10 µM | K562 > 10 µM | MDA-MB-231 > 10 µM | MDA-MB-435 > 10 µM | NCI-H460 > 10 µM | NCI-H522 > 10 µM | RXF 393 21.8 µM | SF-295 > 10 µM | SF-539 > 10 µM | SK-MEL-28 > 100 µM | SK-MEL-2 > 10 µM | UACC-62 > 10 µM

COc1cc(C2c3cc4c(cc3OC(N3CCOCC3)C2C)OCO4)ccc1O (stereo unspecified)
inactive: CAKI-1 31.2 µM | CCRF-CEM 8.67 µM | HCC 2998 14.9 µM | HL-60 3.72 µM | HOP-92 2.84 µM | K562 4.35 µM | MCF7 5.98 µM | MDA-MB-435 2.81 µM | NCI-H460 12 µM | NCI-H522 8.15 µM | RPMI-8226 4.22 µM | RXF 393 11.5 µM | SF-295 4.31 µM | SF-539 11.3 µM | SK-MEL-28 34.1 µM | SK-MEL-2 6.24 µM | SR 5.66 µM | UACC-62 8.05 µM

COC1=CC(=O)[C@]2(C)[C@H](C1=O)C(C)[C@H]2c1ccc(OC)cc1 (stereo partly specified)
inactive: CAKI-1 > 100 µM | CCRF-CEM > 100 µM | HCC 2998 > 100 µM | HL-60 > 100 µM | HOP-92 > 100 µM | K562 > 100 µM | NCI-H460 > 100 µM | NCI-H522 > 100 µM | RPMI-8226 > 100 µM | RXF 393 > 100 µM | SF-295 > 100 µM | SF-539 > 100 µM | SK-MEL-28 > 100 µM | SK-MEL-2 > 100 µM | SR > 100 µM | UACC-62 > 100 µM
